In PubChem BioAssay AID256 (DTP/NCI, 2004) one finds T/C data, which are given here for 18 compounds.

Molecules are shown by their SMILES. Where “and” joins values, the source holds several entries; their conditions need not be identical. Identical values can stand only once. Inconclusive results and toxic doses are left out.

The assay deals with CD2F1 mice, L1210 leukemia ip, survival T/C. Nature of the assay: NCI In Vivo Anticancer Drug Screen. Data for tumor model L1210 Leukemia (intraperitoneal) in CD2F1 (CDF1) mice. The settings on record: higher = longer survival. In a few lines: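 Each value reflects a quotient of treated over vehicle control outcomes in mice with a transplanted tumor.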
Where [1] appears, read: endpoint: mean survival time, dose: 100.0 mg/kg/injection, schedule: Q04DX003 (ip), vehicle: saline with Tween-80.
Setting [2] is: endpoint: mean survival time, dose: 200.0 mg/kg/injection, schedule: Q04DX003 (ip), vehicle: saline with Tween-80.
Where [3] appears, read: endpoint: mean survival time, dose: 400.0 mg/kg/injection, schedule: Q04DX003 (ip), vehicle: saline with Tween-80.
Setting [4] is: endpoint: mean survival time, dose: 100.0 mg/kg/injection, schedule: Q01DX009 (ip), vehicle: saline with Tween-80.
The mark [5] stands for this setting: endpoint: mean survival time, dose: 200.0 mg/kg/injection, schedule: Q01DX009 (ip), vehicle: saline with Tween-80.
The mark [6] stands for this setting: endpoint: mean survival time, dose: 400.0 mg/kg/injection, schedule: Q01DX009 (ip), vehicle: saline with Tween-80.
The mark [7] stands for this setting: endpoint: mean survival time, dose: 12.5 mg/kg/injection, schedule: Q01DX009 (ip), vehicle: saline.
[8] abbreviates: endpoint: mean survival time, dose: 25.0 mg/kg/injection, schedule: Q01DX009 (ip), vehicle: saline.
Where [9] appears, read: endpoint: mean survival time, dose: 50.0 mg/kg/injection, schedule: Q01DX009 (ip), vehicle: saline.
Where [10] appears, read: endpoint: mean survival time, dose: 100.0 mg/kg/injection, schedule: Q01DX009 (ip), vehicle: saline.
Setting [11] is: endpoint: mean survival time, dose: 100.0 mg/kg/injection, schedule: Q01DX001 (ip), vehicle: saline.
Setting [12] is: endpoint: mean survival time, dose: 12.5 mg/kg/injection, schedule: Q04DX003 (ip), vehicle: saline.
Setting [13] is: endpoint: mean survival time, dose: 25.0 mg/kg/injection, schedule: Q04DX003 (ip), vehicle: saline.
The mark [14] stands for this setting: endpoint: mean survival time, dose: 25.0 mg/kg/injection, schedule: Q04DX002 (ip), vehicle: saline.
[15] abbreviates: endpoint: mean survival time, dose: 50.0 mg/kg/injection, schedule: Q04DX002 (ip), vehicle: saline.
[16] abbreviates: endpoint: mean survival time, dose: 100.0 mg/kg/injection, schedule: Q04DX002 (ip), vehicle: saline.

Regarding `CCCCC(CCCC)(C(=O)NC)c1ccccc1`, the T/C was 95 % of control under setting [1], 97 % of control under setting [2] and 90 % of control under setting [3].

On to `C=CCCCC[P+](c1ccccc1)(c1ccccc1)c1ccccc1`, for which the T/C is, setting by setting: (endpoint: mean survival time, dose: 3.0 mg/kg/injection, schedule: Q01DX015 (ip), vehicle: saline) 97 % of control; (endpoint: mean survival time, dose: 12.0 mg/kg/injection, schedule: Q01DX015 (ip), vehicle: saline) 100 % of control; (endpoint: mean survival time, dose: 24.0 mg/kg/injection, schedule: Q01DX015 (ip), vehicle: saline) 97 % of control.

Consider `O=C(Nc1ccc(F)cc1)Nc1ccc(Cl)cc1`, for which the T/C is 97 % of control under setting [4], 100 % of control under setting [5] and 103 % of control under setting [6].

On to `Nc1nc2c(nc(NCc3ccccc3)n2C2OC(CO)C(O)C2O)c(=O)[nH]1` (centres undefined), for which the T/C by setting is: (endpoint: mean survival time, dose: 6.25 mg/kg/injection, schedule: Q01DX005 (ip), vehicle: distilled water + Tween-80) 97 % of control; (endpoint: mean survival time, dose: 12.5 mg/kg/injection, schedule: Q01DX005 (ip), vehicle: distilled water + Tween-80) 95 % of control; (endpoint: mean survival time, dose: 25.0 mg/kg/injection, schedule: Q01DX005 (ip), vehicle: distilled water + Tween-80) 95 % of control; (endpoint: mean survival time, dose: 50.0 mg/kg/injection, schedule: Q01DX005 (ip), vehicle: distilled water + Tween-80) 90 % of control; (endpoint: mean survival time, dose: 100.0 mg/kg/injection, schedule: Q01DX005 (ip), vehicle: distilled water + Tween-80) 90 % of control.

For the compound `Cc1ccccc1C[P+](c1ccccc1)(c1ccccc1)c1ccccc1`, the T/C (endpoint: mean survival time, dose: 1.0 mg/kg/injection, schedule: Q01DX009 (ip), vehicle: saline) is 88 % of control; the T/C (endpoint: mean survival time, dose: 2.0 mg/kg/injection, schedule: Q01DX009 (ip), vehicle: saline) was 96 % of control; the T/C (endpoint: mean survival time, dose: 4.0 mg/kg/injection, schedule: Q01DX009 (ip), vehicle: saline) was 92 % of control; the T/C (endpoint: mean survival time, dose: 8.0 mg/kg/injection, schedule: Q01DX009 (ip), vehicle: saline) is 108 % of control.

For `CCCCN(Cc1ccccc1)CC(O)C[NH-].CS(C)=O.[Cl-].[Cl-].[Pt+4]` (centres undefined), the T/C was 100 % of control (endpoint: median survival time, dose: 10.0 mg/kg/injection, schedule: Q04DX003 (ip), vehicle: saline); 110 % of control (endpoint: median survival time, dose: 20.0 mg/kg/injection, schedule: Q04DX003 (ip), vehicle: saline); 108 % of control (endpoint: median survival time, dose: 40.0 mg/kg/injection, schedule: Q04DX003 (ip), vehicle: saline); 103 % of control (endpoint: median survival time, dose: 50.0 mg/kg/injection, schedule: Q04DX003 (ip), vehicle: saline); 109 % of control (endpoint: median survival time, dose: 80.0 mg/kg/injection, schedule: Q04DX003 (ip), vehicle: saline).

In the case of `Nc1ncnc2c1ncn2[C@@H](/C=N\O)O[C@@H](/C=N\O)CO`, the T/C (endpoint: median survival time, dose: 12.5 mg/kg/injection, schedule: Q01DX005 (ip), vehicle: water) is 100 % of control; the T/C (endpoint: median survival time, dose: 25.0 mg/kg/injection, schedule: Q01DX005 (ip), vehicle: water) is 96 % of control; the T/C (endpoint: median survival time, dose: 50.0 mg/kg/injection, schedule: Q01DX005 (ip), vehicle: water) is 103 % of control; the T/C (endpoint: median survival time, dose: 100.0 mg/kg/injection, schedule: Q01DX005 (ip), vehicle: water) was 97 % of control; the T/C (endpoint: median survival time, dose: 200.0 mg/kg/injection, schedule: Q01DX005 (ip), vehicle: water) was 90 % of control.

`O=C(O)C(CNC(=O)C(F)(F)F)Cc1ccc([N+](=O)[O-])cc1` (centres undefined): the T/C was 98 % of control and 101 % of control under setting [7]; 98 % of control under setting [8]; 97 % of control and 107 % of control under setting [9]; 103 % of control under setting [10].

For `CCN(CC)C(C)C(=O)Nc1c(C)cccc1Cl` (centres undefined), the T/C was 92 % of control under setting [8] and 109 % of control under setting [11].

Consider `NC1CCCCC1N.O=S(=O)([O-])CCCNC1CCCCC1.O=S(=O)([O-])CCCNC1CCCCC1.[Pt+4]`, for which the T/C was 168 % of control (endpoint: median survival time, dose: 0.78 mg/kg/injection, schedule: Q04DX003 (ip), vehicle: saline); 256 % of control (endpoint: median survival time, dose: 1.56 mg/kg/injection, schedule: Q04DX003 (ip), vehicle: saline); 361 % of control and 365 % of control (endpoint: median survival time, dose: 3.12 mg/kg/injection, schedule: Q04DX003 (ip), vehicle: saline); 169 % of control and 240 % of control (endpoint: median survival time, dose: 6.25 mg/kg/injection, schedule: Q04DX003 (ip), vehicle: saline).

In the case of `[Au].[NH-]C1CCCCC1[NH-].[NH-]C1CCCCC1[NH-]` (centres undefined), the T/C was 97 % of control (endpoint: mean survival time, dose: 3.13 mg/kg/injection, schedule: Q04DX003 (ip), vehicle: saline); 96 % of control (endpoint: mean survival time, dose: 6.25 mg/kg/injection, schedule: Q04DX003 (ip), vehicle: saline); 97 % of control under setting [12]; 100 % of control under setting [13].

In the case of `CC1(C[N+](C)(C)C)COC(C)(C)O1` (centres undefined), the T/C is 95 % of control (endpoint: mean survival time, dose: 12.5 mg/kg/injection, schedule: Q04DX002 (ip), vehicle: saline); 98 % of control (endpoint: mean survival time, dose: 25.0 mg/kg/injection, schedule: Q01DX001 (ip), vehicle: saline); 95 % of control under setting [14]; 96 % of control (endpoint: mean survival time, dose: 50.0 mg/kg/injection, schedule: Q01DX001 (ip), vehicle: saline); 106 % of control under setting [15]; 94 % of control (endpoint: mean survival time, dose: 100.0 mg/kg/injection, schedule: Q01DX001 (ip), vehicle: saline with Tween-80). Moreover, the T/C is 103 % of control under setting [11] and 95 % of control under setting [16].

For `N#CCCC1C(=O)CCCC1=O`, the T/C is 105 % of control under setting [1], 89 % of control under setting [2] and 97 % of control under setting [3].

As to `O=CNCCO`, the T/C was 98 % of control under setting [4]; 113 % of control (endpoint: mean survival time, dose: 100.0 mg/kg/injection, schedule: Q04DX003 (ip), vehicle: saline); 94 % of control under setting [5]; 108 % of control (endpoint: mean survival time, dose: 200.0 mg/kg/injection, schedule: Q04DX003 (ip), vehicle: saline); 93 % of control under setting [6]; 110 % of control (endpoint: mean survival time, dose: 400.0 mg/kg/injection, schedule: Q04DX003 (ip), vehicle: saline).

For `N/C(=N/N=C/c1cc(Br)cc(Br)c1O)NO`, the T/C runs as follows: (endpoint: median survival time, dose: 12.5 mg/kg/injection, schedule: Q01DX005 (ip), vehicle: suspension in saline) 105 % of control; (endpoint: median survival time, dose: 25.0 mg/kg/injection, schedule: Q01DX005 (ip), vehicle: suspension in saline) 100 % of control; (endpoint: median survival time, dose: 50.0 mg/kg/injection, schedule: Q01DX005 (ip), vehicle: suspension in saline) 105 % of control; (endpoint: median survival time, dose: 100.0 mg/kg/injection, schedule: Q01DX005 (ip), vehicle: suspension in saline) 116 % of control.

With `O=C1OC(=O)C2C3C=CC(O3)C12` (centres undefined), the T/C (endpoint: mean survival time, dose: 10.0 mg/kg/injection, schedule: Q01DX009 (ip), vehicle: saline with Tween-80) is 100 % of control; the T/C under setting [7] is 105 % of control; the T/C under setting [12] was 95 % of control; the T/C (endpoint: mean survival time, dose: 20.0 mg/kg/injection, schedule: Q01DX009 (ip), vehicle: saline with Tween-80) is 98 % of control; the T/C under setting [8] was 94 % of control; the T/C under setting [14] was 104 % of control. In addition, the T/C is 98 % of control under setting [13]; 102 % of control under setting [9]; 104 % of control under setting [15]; 95 % of control (endpoint: mean survival time, dose: 50.0 mg/kg/injection, schedule: Q04DX003 (ip), vehicle: saline); 97 % of control and 98 % of control under setting [16].

In the case of `O=C(c1ccccc1Cl)c1cccc2ccccc12`, the T/C by setting is: under setting [10], 110 % of control; (endpoint: mean survival time, dose: 200.0 mg/kg/injection, schedule: Q01DX009 (ip), vehicle: saline) 96 % of control; (endpoint: mean survival time, dose: 400.0 mg/kg/injection, schedule: Q01DX009 (ip), vehicle: saline) 94 % of control.

For the compound `CCCCCCCCCC[n+]1ccc(C#N)cc1`, the T/C is 101 % of control (endpoint: mean survival time, dose: 9.38 mg/kg/injection, schedule: Q01DX001 (ip), vehicle: saline) and 103 % of control (endpoint: mean survival time, dose: 18.75 mg/kg/injection, schedule: Q01DX001 (ip), vehicle: saline).
